Test results published in US20240351995A1, “(3-PIRYDYL)-QUINAZOLINE” (BASF SE, priority 2021, published 2024).

Assays:
[1] = system: Corynespora cassiicola G413A mutant; assay: Microtest: activity against Corynespora cassiicola G413A mutant in the microtiterplate test; assay type: cell-based; settings: 31 ppm, relative to active compound-free control (100%)
From the text: (§1) The active compounds were formulated separately as a stock solution having a concentration of 10000 ppm in dimethyl sulfoxide.
(§2) The stock solutions were mixed according to the ratio, pipetted onto a micro titer plate (MTP) and diluted with water to the stated concentrations.
(§3) The measured parameters were compared to the growth of the active compound-free control variant (100%) and the fungus-free blank value to determine the relative growth in % of the pathogens in the respective active compounds.
A spore suspension of Corynespora cassiicola in an aqueous biomalt or yeast-bactopeptone-sodiumacetate solution was then added.

Cercospora zeae maydis = assay: Microtest: activity against Cercospora zeae maydis in the microtiterplate test; assay type: cell-based; settings: 31 ppm; relative to active compound-free control (100%)
From the text: as §1, §2, §3
A spore suspension of Cercospora zeae maydis in an aqueous biomalt or yeast-bactopeptone-sodiumacetate solution was then added.

Compound | growth of the pathogen (relative growth in %) [1] [%] | growth of the pathogen (relative growth in %) (Cercospora zeae maydis) [%]
CCC1(C)N=C(c2cnc(C(F)F)c(C)c2)c2cccc(F)c2N1 (racemic) [Ex-25] | 19 | –
Cc1cc(C2=NC(C)(CC(C)C)Nc3c(F)cccc32)cnc1C(F)F (racemic) [Ex-26] | 19 | –
CCC1(C)N=C(c2cnc(C(F)F)c(C)c2)c2cccc(F)c2N1C (racemic) [Ex-29] | 19 | 17
Cc1cc(C2=NC(C)(CC(C)C)N(C)c3c(F)cccc32)cnc1C(F)F (racemic) [Ex-32] | 19 | –
Cc1cc(C2=NC(C)(CC(C)C)N(C#N)c3c(F)cccc32)cnc1C(F)F (racemic) [Ex-41] | 19 | 17
Cc1cc(C2=NC(C)(C3CC3)N(C)c3c(F)cccc32)cnc1C(F)F (racemic) [Ex-56] | 19 | 17
Cc1cc(C2=NC(C)(c3ccccc3)N(C)c3c(F)cccc32)cnc1C(F)F (racemic) [Ex-60] | 19 | 17
Cc1cc(C2=NC(C)(c3ccccn3)N(C)c3c(F)cccc32)cnc1C(F)F (racemic) [Ex-61] | 19 | 17
Cc1cc(C2=NC(C)(C)Nc3c(F)cccc32)cnc1C(F)F [Ex-5] | 19 | 17
Cc1cc(C2=NC(C)(C)N(C)c3c(F)cccc32)cnc1C(F)F [Ex-6] | 19 | 17
CCN1c2c(F)cccc2C(c2cnc(C(F)F)c(C)c2)=NC1(C)C [Ex-7] | 19 | –
Cc1cc(C2=NC(C)(C)Nc3c(Cl)cccc32)cnc1C(F)F [Ex-8] | 19 | –
Cc1cc(C2=NC(C)(C)N(C)c3c(Cl)cccc32)cnc1C(F)F [Ex-9] | 19 | 17
CCCN1c2c(F)cccc2C(c2cnc(C(F)F)c(C)c2)=NC1(C)C [Ex-13] | 19 | –
CCCCN1c2c(F)cccc2C(c2cnc(C(F)F)c(C)c2)=NC1(C)C [Ex-14] | 19 | –
Cc1cc(C2=NC(C)(C)N(CC(C)C)c3c(F)cccc32)cnc1C(F)F [Ex-15] | 19 | –

Compound | growth of the pathogen (relative growth in %) [1] [%] | growth of the pathogen (relative growth in %) (Cercospora zeae maydis) [%]
CC(=O)N1c2c(F)cccc2C(c2cnc(C(F)F)c(C)c2)=NC1(C)C [Ex-20] | 19 | –
Cc1cc(C2=NC(C)(C)N(C)c3c(Cl)cccc32)cnc1C [Ex-22] | 19 | 17
Cc1cc(C2=NC(C)(C)Nc3c(Cl)cccc32)cnc1C [Ex-23] | 19 | –
Cc1cc(C2=NC(C)(C)N(C#N)c3ccccc32)cnc1C(F)F [Ex-27] | 19 | –
Cc1cc(C2=NC(C)(C)N(C#N)c3c(Cl)cccc32)cnc1C [Ex-28] | 19 | –
Cc1ccc2c(c1)NC(C)(C)N=C2c1cnc(C(F)F)c(C)c1 [Ex-31] | 19 | –
Cc1cc(C2=NC(C)(C)N(C#N)c3ccccc32)cnc1C [Ex-35] | 19 | –
Cc1cc(C2=NC(C)(C)N(C)c3cc(F)ccc32)cnc1C(F)F [Ex-36] | 19 | –
Cc1cc(C2=NC(C)(C)N(C)c3cc(Cl)ccc32)cnc1C(F)F [Ex-38] | 19 | 17
Cc1ccc2c(c1)N(C)C(C)(C)N=C2c1cnc(C(F)F)c(C)c1 [Ex-40] | 19 | –
Cc1cc(C2=NC(C)(C)N(C)c3c(Br)cccc32)cnc1C(F)F [Ex-50] | 19 | 17
Cc1cc(C2=NC(C)(C)N(C)c3c(C)cccc32)cnc1C(F)F [Ex-53] | 19 | 17
Cc1cc(C2=NC(C)(C)N(C#N)c3cc(F)ccc32)cnc1C(F)F [Ex-55] | 19 | –
C#Cc1cccc2c1NC(C)(C)N=C2c1cnc(C(F)F)c(C)c1 [Ex-81] | – | 17
Cc1cc(C2=NC(C)(C)N(C)c3c2ccc(F)c3F)cnc1C(F)F [Ex-91] | 19 | 17
